Key:
Assay type in all cases: biochemical
PI3K alpha = target: T1, PI3K alpha (Homo sapiens, UniProt P42336); assay: Luciferase-based luminescence assay (KinaseGlo), PI3K alpha enzymatic activity; conditions: inhibition of enzymatic activity, 25 μM ATP, read-out: IC50 p110α
T1 construct: purchased Invitrogen Corp., Carlsbad, CA, USA
Protocol: (§1) PI3K catalyzes the conversion of phosphatidylinositol-4,5-bisphosphate (PIP2) and ATP to phosphatidylinositol-3,4,5-trisphosphate (PIP3) and ADP. For all assays, the reaction buffer comprised 50 mM HEPES, pH 7.5, 3 mM MgCl2, 1 mM EGTA, 100 mM NaCl, 0.03% CHAPS and 2 mM DTT. Compounds for testing were dissolved and serially diluted in 100% DMSO (total of 10 concentrations), then diluted 1:25 in reaction buffer.
(§2) PI3K alpha and PI3K delta enzymatic activity was determined by measuring the amount of ATP consumed following the kinase reaction using a luciferase-based luminescence assay (KinaseGlo®, Promega Corp., Madison, WI, USA). PI3K enzyme solutions were prepared by diluting PI3K alpha (Invitrogen Corp., Carlsbad, CA, USA) or PI3K delta (Millipore, Billerica, MA, USA) in reaction buffer, to 4× the final assay concentration (final concentrations of enzymes were 1.65 nM and 6.86 nM for PI3K alpha and PI3K delta, respectively). A substrate solution was prepared by mixing PIP2 and ATP in reaction buffer at 2× the final assay concentration (final concentrations were 50 μM and 25 μM for PIP2 and ATP respectively). 2.5 μL each of the compound and kinase mixtures were added to individual wells of white low volume 384-well assay plates and mixed by shaking. The reactions were started by adding 5 μL of substrate mixture per well and shaking. The assay plates were covered and reactions were allowed to proceed for 1 hour (PI3K alpha) or 2 hours (PI3K delta), after which 10 μL of Kinase Glo® reagent was added. The plates were briefly centrifuged and incubated for 10 minutes, after which luminescence was measured using a FlexStation plate reader (Molecular Devices, Sunnyvale, CA, USA). IC50 values were determined by curve fitting using Graphpad Prism software (Graphpad Software, La Jolla, CA, USA).

PI3K delta = target: T2, PI3K delta (Homo sapiens, UniProt O00329); assay: Luciferase-based luminescence assay (KinaseGlo), PI3K delta enzymatic activity; conditions: for IC50: inhibition of enzymatic activity, KinaseGlo, 25 μM ATP, read-out: IC50 p110δ; for α/δ ratio: ratio of enzymatic IC50 against PI3Kα over IC50 against PI3Kδ; for β/δ ratio / γ/δ ratio: ratio of enzymatic IC50 values, Table 1
T2 construct: purchased Millipore, Billerica, MA, USA
T2 sequence (O00329 whole entry, species assumed): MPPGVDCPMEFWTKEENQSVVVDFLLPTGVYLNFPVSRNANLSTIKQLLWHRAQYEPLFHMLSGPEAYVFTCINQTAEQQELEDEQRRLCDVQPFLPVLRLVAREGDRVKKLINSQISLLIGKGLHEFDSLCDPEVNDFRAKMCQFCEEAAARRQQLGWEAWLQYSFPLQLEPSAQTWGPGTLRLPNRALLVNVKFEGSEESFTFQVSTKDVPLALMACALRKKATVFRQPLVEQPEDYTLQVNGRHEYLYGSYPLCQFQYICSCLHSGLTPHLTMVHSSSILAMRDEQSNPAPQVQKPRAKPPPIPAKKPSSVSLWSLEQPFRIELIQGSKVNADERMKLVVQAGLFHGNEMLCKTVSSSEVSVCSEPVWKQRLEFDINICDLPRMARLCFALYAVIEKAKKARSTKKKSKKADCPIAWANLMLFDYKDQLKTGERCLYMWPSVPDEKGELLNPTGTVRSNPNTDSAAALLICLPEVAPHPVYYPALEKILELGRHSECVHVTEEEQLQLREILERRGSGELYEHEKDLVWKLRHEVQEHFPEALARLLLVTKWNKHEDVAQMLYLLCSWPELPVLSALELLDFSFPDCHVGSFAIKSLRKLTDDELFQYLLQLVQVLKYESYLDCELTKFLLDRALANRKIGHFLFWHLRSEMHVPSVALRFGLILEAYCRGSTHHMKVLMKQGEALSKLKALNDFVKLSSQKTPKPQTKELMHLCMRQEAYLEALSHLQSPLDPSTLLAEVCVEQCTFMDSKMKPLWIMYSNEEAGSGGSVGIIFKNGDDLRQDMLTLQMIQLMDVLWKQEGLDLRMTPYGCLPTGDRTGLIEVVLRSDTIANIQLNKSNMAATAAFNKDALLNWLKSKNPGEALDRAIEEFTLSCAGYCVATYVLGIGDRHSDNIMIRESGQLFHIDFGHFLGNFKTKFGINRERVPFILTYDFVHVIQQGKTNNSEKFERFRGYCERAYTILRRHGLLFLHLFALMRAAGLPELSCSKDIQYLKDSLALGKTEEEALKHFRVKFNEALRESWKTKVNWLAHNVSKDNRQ
T2 sequence (P27986 whole entry partner, species assumed): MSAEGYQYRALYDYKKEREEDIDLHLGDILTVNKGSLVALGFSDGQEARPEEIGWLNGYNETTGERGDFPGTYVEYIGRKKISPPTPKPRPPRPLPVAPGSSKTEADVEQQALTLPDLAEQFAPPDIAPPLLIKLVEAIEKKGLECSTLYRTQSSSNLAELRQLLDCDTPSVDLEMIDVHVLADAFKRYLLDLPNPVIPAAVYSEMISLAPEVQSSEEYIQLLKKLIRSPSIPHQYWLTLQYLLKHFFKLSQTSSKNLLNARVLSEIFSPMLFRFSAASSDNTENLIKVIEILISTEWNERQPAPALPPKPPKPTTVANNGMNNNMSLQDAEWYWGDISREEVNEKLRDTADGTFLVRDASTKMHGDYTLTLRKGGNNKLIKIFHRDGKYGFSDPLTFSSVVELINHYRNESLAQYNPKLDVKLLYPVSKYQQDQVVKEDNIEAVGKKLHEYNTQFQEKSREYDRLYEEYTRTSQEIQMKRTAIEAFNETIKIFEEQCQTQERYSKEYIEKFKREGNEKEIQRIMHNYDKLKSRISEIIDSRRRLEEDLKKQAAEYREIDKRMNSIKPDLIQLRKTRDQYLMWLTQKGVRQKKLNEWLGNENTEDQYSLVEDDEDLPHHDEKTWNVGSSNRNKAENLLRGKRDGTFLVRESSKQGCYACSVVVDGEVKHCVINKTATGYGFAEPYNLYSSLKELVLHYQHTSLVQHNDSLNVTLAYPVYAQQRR
Protocol: as §1, §2

mTOR = mTOR (Homo sapiens, UniProt P42345); assay: mTOR inhibition (Table 1); conditions: Table 1, no method described
PI3K gamma = target: T3, PI3K gamma (Homo sapiens, UniProt P48736); assay: Luciferase-based luminescence assay (ADP Glo), PI3K gamma enzymatic activity; conditions: inhibition of enzymatic activity, 25 μM ATP, read-out: IC50 p110γ
T3 construct: purchased Invitrogen Corp., Carlsbad, CA, USA
T3 sequence (P48736 whole entry, species assumed): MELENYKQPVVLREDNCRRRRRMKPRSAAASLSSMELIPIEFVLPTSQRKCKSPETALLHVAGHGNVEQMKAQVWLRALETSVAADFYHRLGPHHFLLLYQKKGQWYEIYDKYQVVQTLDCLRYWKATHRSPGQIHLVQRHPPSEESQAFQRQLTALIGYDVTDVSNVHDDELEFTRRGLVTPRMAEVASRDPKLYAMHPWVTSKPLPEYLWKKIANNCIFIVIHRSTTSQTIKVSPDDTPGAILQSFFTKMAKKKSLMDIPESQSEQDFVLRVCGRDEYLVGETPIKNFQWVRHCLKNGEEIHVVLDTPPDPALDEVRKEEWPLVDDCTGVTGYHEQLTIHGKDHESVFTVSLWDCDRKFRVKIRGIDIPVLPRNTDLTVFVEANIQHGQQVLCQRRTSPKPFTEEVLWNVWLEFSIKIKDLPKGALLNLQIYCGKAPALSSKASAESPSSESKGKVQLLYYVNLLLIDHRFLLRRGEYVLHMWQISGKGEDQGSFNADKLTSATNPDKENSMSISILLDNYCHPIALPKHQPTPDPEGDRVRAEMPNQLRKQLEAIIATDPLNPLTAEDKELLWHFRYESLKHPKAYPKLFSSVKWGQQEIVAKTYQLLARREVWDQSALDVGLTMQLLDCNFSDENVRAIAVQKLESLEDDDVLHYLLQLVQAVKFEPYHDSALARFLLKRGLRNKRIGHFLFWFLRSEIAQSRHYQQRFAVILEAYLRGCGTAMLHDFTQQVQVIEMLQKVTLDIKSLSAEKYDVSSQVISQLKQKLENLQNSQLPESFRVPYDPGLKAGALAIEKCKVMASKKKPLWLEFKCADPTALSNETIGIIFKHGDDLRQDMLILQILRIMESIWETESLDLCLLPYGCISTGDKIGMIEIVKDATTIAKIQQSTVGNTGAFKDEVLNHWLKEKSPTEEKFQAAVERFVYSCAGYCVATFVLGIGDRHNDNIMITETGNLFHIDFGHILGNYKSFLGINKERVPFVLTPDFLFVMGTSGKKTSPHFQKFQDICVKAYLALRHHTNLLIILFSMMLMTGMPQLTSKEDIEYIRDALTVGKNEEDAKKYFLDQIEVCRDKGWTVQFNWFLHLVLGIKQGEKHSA
Protocol: as §1
(§3) PI3K beta and gamma enzymatic activity was determined by measuring the amount of ADP produced following the kinase reaction using a luciferase-based luminescence assay (ADP Glo®, Promega Corp., Madison, WI, USA). PI3K enzyme solutions were prepared by diluting PI3K beta (Millipore, Billerica, MA, USA) or PI3K gamma (Invitrogen Corp., Carlsbad, CA, USA) in reaction buffer, to 4× the final assay concentration (final concentrations of enzymes were 4.8 nM and 7.6 nM for PI3K beta and PI3K gamma respectively). A substrate solution was prepared by mixing PIP2 and ATP in reaction buffer at 2× the final assay concentration (final concentrations were 50 μM and 25 μM for PIP2 and ATP respectively). 2.5 μL each of the compound and kinase mixtures were added to individual wells of white low volume 384-well assay plates and mixed by shaking. The reactions were started by adding 5 μL of substrate mixture per well and shaking. The assay plates were covered and reactions were allowed to proceed for 1 hour. Then, 5 μL of reaction mix was transferred to another white low volume 384-well plate, and 5 μL of ADP-Glo™ reagent was added. The plates were briefly centrifuged and incubated for 40 minutes, after which 10 μL of kinase detection buffer was added. The plates then were centrifuged briefly, shaken slowly and equilibrated at room temperature for 30 minutes, after which luminescence was measured using a FlexStation plate reader (Molecular Devices, Sunnyvale, CA, USA). IC50 values were determined by curve fitting using Graphpad Prism software (Graphpad Software, La Jolla, CA, USA).

PI3K beta = target: T4, PI3K beta (Homo sapiens, UniProt P42338); assay: Luciferase-based luminescence assay (ADP Glo), PI3K beta enzymatic activity; conditions: for IC50: inhibition of enzymatic activity, ADP Glo, 25 μM ATP, read-out: IC50 p110β; for α/β ratio: ratio of enzymatic IC50 values, Table 1
T4 construct: purchased Millipore, Billerica, MA, USA
T4 sequence (P42338 whole entry, species assumed): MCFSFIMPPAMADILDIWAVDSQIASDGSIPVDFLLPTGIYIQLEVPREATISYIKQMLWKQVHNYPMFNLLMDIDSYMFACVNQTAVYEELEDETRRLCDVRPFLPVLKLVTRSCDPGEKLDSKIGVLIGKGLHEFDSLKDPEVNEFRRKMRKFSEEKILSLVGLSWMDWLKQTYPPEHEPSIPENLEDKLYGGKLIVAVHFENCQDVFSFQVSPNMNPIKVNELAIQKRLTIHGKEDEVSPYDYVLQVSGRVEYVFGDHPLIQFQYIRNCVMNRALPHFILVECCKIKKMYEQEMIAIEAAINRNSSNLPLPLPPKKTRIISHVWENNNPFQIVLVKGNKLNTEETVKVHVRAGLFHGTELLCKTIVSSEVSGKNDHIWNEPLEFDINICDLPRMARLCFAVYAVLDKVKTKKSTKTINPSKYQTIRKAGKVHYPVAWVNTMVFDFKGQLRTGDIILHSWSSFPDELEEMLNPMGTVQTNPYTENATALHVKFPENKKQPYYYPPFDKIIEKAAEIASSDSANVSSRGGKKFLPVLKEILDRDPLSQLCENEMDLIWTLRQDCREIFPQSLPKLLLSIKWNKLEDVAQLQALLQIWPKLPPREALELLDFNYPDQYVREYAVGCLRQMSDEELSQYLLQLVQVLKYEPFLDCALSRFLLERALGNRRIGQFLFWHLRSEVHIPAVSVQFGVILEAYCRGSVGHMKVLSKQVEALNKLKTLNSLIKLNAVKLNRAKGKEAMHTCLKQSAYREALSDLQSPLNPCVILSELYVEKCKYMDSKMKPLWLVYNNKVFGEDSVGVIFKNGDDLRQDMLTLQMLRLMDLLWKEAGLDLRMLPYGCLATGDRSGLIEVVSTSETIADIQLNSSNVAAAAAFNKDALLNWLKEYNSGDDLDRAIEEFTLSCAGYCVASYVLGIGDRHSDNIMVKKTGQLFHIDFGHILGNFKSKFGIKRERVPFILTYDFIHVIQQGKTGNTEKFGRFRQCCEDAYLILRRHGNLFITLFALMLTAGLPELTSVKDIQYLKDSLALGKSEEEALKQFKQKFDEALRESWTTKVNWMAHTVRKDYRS
T4 sequence (P27986 whole entry partner, species assumed): as the sequence (P27986 whole entry partner, species assumed) above
Protocol: as §1, §3

T1 sequence (P42336 whole entry, species assumed): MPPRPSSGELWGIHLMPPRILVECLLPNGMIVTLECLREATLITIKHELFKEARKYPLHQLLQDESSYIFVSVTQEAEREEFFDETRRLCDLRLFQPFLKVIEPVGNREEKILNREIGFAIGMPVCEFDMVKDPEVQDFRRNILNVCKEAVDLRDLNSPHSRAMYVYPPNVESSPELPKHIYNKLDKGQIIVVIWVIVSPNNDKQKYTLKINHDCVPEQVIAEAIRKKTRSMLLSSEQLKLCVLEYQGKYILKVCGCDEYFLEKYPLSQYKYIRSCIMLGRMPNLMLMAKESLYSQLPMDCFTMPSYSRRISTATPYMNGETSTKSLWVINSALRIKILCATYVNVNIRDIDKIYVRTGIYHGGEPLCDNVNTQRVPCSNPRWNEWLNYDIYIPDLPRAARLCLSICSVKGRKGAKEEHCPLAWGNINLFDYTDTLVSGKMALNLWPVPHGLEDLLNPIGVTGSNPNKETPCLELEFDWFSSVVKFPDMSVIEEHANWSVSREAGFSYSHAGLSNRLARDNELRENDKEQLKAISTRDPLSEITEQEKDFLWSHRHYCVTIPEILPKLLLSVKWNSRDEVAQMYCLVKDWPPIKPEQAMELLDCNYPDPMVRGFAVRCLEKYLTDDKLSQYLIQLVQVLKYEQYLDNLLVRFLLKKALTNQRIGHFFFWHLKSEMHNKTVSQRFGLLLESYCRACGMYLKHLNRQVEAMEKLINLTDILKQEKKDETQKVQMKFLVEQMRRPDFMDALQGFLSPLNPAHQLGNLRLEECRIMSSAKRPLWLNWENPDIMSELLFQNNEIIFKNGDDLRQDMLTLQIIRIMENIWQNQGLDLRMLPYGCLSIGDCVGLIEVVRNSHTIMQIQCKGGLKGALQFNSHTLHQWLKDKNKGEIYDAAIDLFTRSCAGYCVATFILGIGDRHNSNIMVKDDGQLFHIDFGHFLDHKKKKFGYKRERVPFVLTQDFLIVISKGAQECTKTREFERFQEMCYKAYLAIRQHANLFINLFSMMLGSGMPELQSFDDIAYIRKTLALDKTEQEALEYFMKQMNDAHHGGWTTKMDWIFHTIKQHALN
T1 sequence (P27986 whole entry partner, species assumed): as the sequence (P27986 whole entry partner, species assumed) above

Structure (SMILES)	IC50 (PI3K alpha) [nM]	IC50 (PI3K delta) [nM]	α/δ ratio (PI3K delta)	β/δ ratio (PI3K delta)	γ/δ ratio (PI3K delta)	IC50 (mTOR) [nM]	IC50 (PI3K gamma) [nM]	IC50 (PI3K beta) [nM]	α/β ratio (PI3K beta)
CC(C)(Nc1nc(N2CCOCC2)nc(-n2c(C(F)F)nc3ccccc32)n1)c1ccc(Cl)cc1 [Compound A8, N-(2-(4-chlorophenyl)propan-2-yl)-4-(2-(difluoromethyl)-1H-benzo[d]imidazol-1-yl)-6-morpholino-1,3,5-triazin-2-amine]	> 500	> 500	C’	–	–	–	–	–	–
COc1ccc(C(C)(C)Nc2nc(N3CCOCC3)nc(-n3c(C(F)F)nc4ccccc43)n2)cc1 [Compound A9, 4-(2-(difluoromethyl)-1H-benzo[d]imidazol-1-yl)-N-(2-(4-methoxyphenyl)propan-2-yl)-6-morpholino-1,3,5-triazin-2-amine]	> 500	> 500	D’	–	–	–	–	–	–
COC(=O)[C@H](Nc1nc(N2CCOCC2)nc(-n2c(C(F)F)nc3ccccc32)n1)c1ccccc1 [Compound A11, (R)-methyl 2-((4-(2-(difluoromethyl)-1H-benzo[d]imidazol-1-yl)-6-morpholino-1,3,5-triazin-2-yl)amino)-2-phenylacetate]	200 to 500	≤ 100	D’	–	–	–	–	–	–
COC(=O)[C@@H](Nc1nc(N2CCOCC2)nc(-n2c(C(F)F)nc3ccccc32)n1)c1ccccc1 [Compound A12, (S)-methyl 2-((4-(2-(difluoromethyl)-1H-benzo[d]imidazol-1-yl)-6-morpholino-1,3,5-triazin-2-yl)amino)-2-phenylacetate]	> 500	200 to 500	D’	–	–	–	–	–	–
CC(C)(Nc1nc(N2CCOCC2)nc(-n2c(C(F)F)nc3ccccc32)n1)c1ccc2ccccc2c1 [Compound A13, 4-(2-(difluoromethyl)-1H-benzo[d]imidazol-1-yl)-6-morpholino-N-(2-(naphthalen-2-yl)propan-2-yl)-1,3,5-triazin-2-amine]	> 500	> 500	A’	–	–	–	–	–	–
CC(C)(Cc1ccccc1Br)Nc1nc(N2CCOCC2)nc(-n2c(C(F)F)nc3ccccc32)n1 [Compound A17, 4-(2-(difluoromethyl)-1H-benzo[d]imidazol-1-yl)-N-(1-(2-bromophenyl)-2-methylpropan-2-yl)-6-morpholino-1,3,5-triazin-2-amine]	> 500	–	–	–	–	> 500	–	–	–
CC(C)(Cc1cccc(Cl)c1)Nc1nc(N2CCOCC2)nc(-n2c(C(F)F)nc3ccccc32)n1 [Compound A20, N-(1-(3-chlorophenyl)-2-methylpropan-2-yl)-4-(2-(difluoromethyl)-1H-benzo[d]imidazol-1-yl)-6-morpholino-1,3,5-triazin-2-amine]	> 500	100 to 200	A’	D’	C’	> 500	> 500	100 to 200	A’
CC(C)(Cc1ccc2ccccc2c1)Nc1nc(N2CCOCC2)nc(-n2c(C(F)F)nc3ccccc32)n1 [Compound A26, 4-(2-(difluoromethyl)-1H-benzo[d]imidazol-1-yl)-N-(2-methyl-1-(naphthalen-2-yl)propan-2-yl)-6-morpholino-1,3,5-triazin-2-amine]	200 to 500	100 to 200	D’	D’	D’	> 500	100 to 200	≤ 100	C’
CC(C)(Nc1nc(N2CCOCC2)nc(-n2c(C(F)F)nc3ccccc32)n1)C1(c2ccccc2)CC1 [Compound A30, 4-(2-(difluoromethyl)-1H-benzo[d]imidazol-1-yl)-N-(2-(1-phenylcyclopropyl)propan-2-yl)-6-morpholino-1,3,5-triazin-2-amine]	> 500	100 to 200	A’	D’	D’	> 500	> 500	200 to 500	B’

Second part, the compound after the results:

IC50 (PI3K alpha) [nM]	IC50 (PI3K delta) [nM]	α/δ ratio (PI3K delta)	β/δ ratio (PI3K delta)	γ/δ ratio (PI3K delta)	IC50 (mTOR) [nM]	IC50 (PI3K gamma) [nM]	IC50 (PI3K beta) [nM]	α/β ratio (PI3K beta)	Structure (SMILES)
> 500	≤ 100	C’	–	–	–	–	–	–	CC(Nc1nc(N2CCOCC2)nc(-n2c(C(F)F)nc3ccccc32)n1)c1ccccc1 (centres unmarked) [Compound A1, 4-(2-(difluoromethyl)-1H-benzo[d]imidazol-1-yl)-6-morpholino-N-(1-phenylethyl)-1,3,5-triazin-2-amine]
> 500	200 to 500	D’	A’	D’	> 500	> 500	> 500	D’	C[C@H](Nc1nc(N2CCOCC2)nc(-n2c(C(F)F)nc3ccccc32)n1)c1ccccc1 [Compound A2, (S)-4-(2-(difluoromethyl)-1H-benzo[d]imidazol-1-yl)-6-morpholino-N-(1-phenylethyl)-1,3,5-triazin-2-amine]
> 500	> 500	D’	–	–	–	–	–	–	C[C@@H](Nc1nc(N2CCOCC2)nc(-n2c(C(F)F)nc3ccccc32)n1)c1ccccc1 [Compound A3, (R)-4-(2-(difluoromethyl)-1H-benzo[d]imidazol-1-yl)-6-morpholino-N-(1-phenylethyl)-1,3,5-triazin-2-amine]
> 500	200 to 500	C’	C’	D’	> 500	100 to 200	> 500	D’	CC[C@H](Nc1nc(N2CCOCC2)nc(-n2c(C(F)F)nc3ccccc32)n1)c1ccccc1 [Compound A5, (S)-4-(2-(difluoromethyl)-1H-benzo[d]imidazol-1-yl)-6-morpholino-N-(1-phenylpropyl)-1,3,5-triazin-2-amine]
> 500	> 500	B’	–	–	–	–	–	–	CC[C@@H](Nc1nc(N2CCOCC2)nc(-n2c(C(F)F)nc3ccccc32)n1)c1ccccc1 [Compound A6, (R)-4-(2-(difluoromethyl)-1H-benzo[d]imidazol-1-yl)-6-morpholino-N-(1-phenylpropyl)-1,3,5-triazin-2-amine]
> 500	100 to 200	C’	A’	D’	> 500	200 to 500	> 500	D’	CC(C)(Nc1nc(N2CCOCC2)nc(-n2c(C(F)F)nc3ccccc32)n1)c1ccccc1 [Compound A7, 4-(2-(difluoromethyl)-1H-benzo[d]imidazol-1-yl)-6-morpholino-N-(2-phenylpropan-2-yl)-1,3,5-triazin-2-amine]
> 500	200 to 500	C’	A’	D’	> 500	> 500	> 500	D’	CC(C)(CNc1nc(N2CCOCC2)nc(-n2c(C(F)F)nc3ccccc32)n1)c1ccccc1 [Compound A29, 4-(2-(difluoromethyl)-1H-benzo[d]imidazol-1-yl)-N-(2-methyl-2-phenylpropyl)-6-morpholino-1,3,5-triazin-2-amine]
100 to 200	100 to 200	D’	–	–	–	–	–	–	FC(F)c1nc2ccccc2n1-c1nc(NCc2ccccc2)nc(N2CCOCC2)n1 [Ref 1, N-benzyl-4-(2-(difluoromethyl)-1H-benzo[d]imidazol-1-yl)-6-morpholino-1,3,5-triazin-2-amine, reference compound]
